These results are taken from US20050214945A1, “Htlv-I tax induced killing of p53 null cancer cells” (Eastern Virginia Medical School, priority 2002, published 2005).

One assay concerns p53 and p21. As to the kind of experiment: Immunoblot of p53 and p21 after UV. The class given is cell-based, rat. The following applies: UV-induced DNA damage; Tax-expressing and control REF52. Here is the method: Approximately 2×10^6 cells were harvested and proteins extracted with […] Mammalian Protein Extraction Reagent (Pierce). 50 μl of 4× Laemmli buffer was added to the lysate. […] of the lysate was electrophoresed through a 10% SDS polyacrylamide gel. The proteins were electroblotted onto an Immobolin-P membrane (Millipore), and probed with the indicated primary antibody and the appropriate secondary alkaline phosphatase-conjugated antibody. Immunoreactivity was detected via Western Star chemiluminescence protein detection (Tropix).
To further analyze the p53 response in Tax-expressing cells, both Tax-expressing and control REF52 cells were examined for stabilization of steady-state p^53 and transient induction of p21. Since induction of p21 is a key event in p53-mediated cell cycle arrest, analysis of the p21 levels in Tax-expressing cells could determine the integrity of this signal. Tax-expressing and control cells were exposed to UV and harvested for western analysis pre-exposure and at eight hours and twenty four hours post exposure. […] Thus, one p53-dependent signal for cell cycle arrest, transient induction of p21, was intact.

Another assay has as its system p53+/+ cells (REF52). As to the kind of experiment: Percent surviving cells after sublethal UV. The class given is cell-based, rat. The conditions noted are these: 24 hours after treatment, vs control cells.
For assay [1], the system named is Hela cells and p53 deleted cell line. As to the kind of experiment: Cytokinesis block cell cycle progression assay in p53 repressed/deleted cells. The class given is cell-based. The following applies: exposed to UV, cytochalasin B, 36 hours; partial (25%) and 100% transduction. How it is done: (§1) Asynchronous cell cultures were seeded on coverslips and exposed to UV irradiation and allowed to recover for 1 hour. Cytochalasin B was added and the cultures incubated for 36 hours. The coverslips were fixed with paraformaldehyde/methanol and stained with propidium iodide. Slides were prepared and cell nuclei examined by microscopy. Bi-nucleus cells were considered dividing.
To test this hypothesis, the cell cycle arrest response was examined in Tax-expressing and control p53−/− cells. Tax-expressing and control Hela cell groups were subjected to the cytokinesis block cell cycle progression assay as described above. Each cell group was exposed to UV and incubated with cytochalasin B one hour later. The cells were examined after 36 hours for the presence of binucleated dividing cells. Hela cells transduced to express Tax at 25% efficiency. Tax-expressing Hela cells were identified by immunofluorescence using anti-Tax mouse monoclonal antibody and FITC-conjugated anti-mouse secondary antibody. The nuclei were stained with propidium iodide. Hela and Tax-expressing Hela formed binuclei indicating normal division. […] In experiments using 100% transduction of Tax, 1000 cell events were counted.

A further assay concerns REF52 and p53d cells. Kind of assay: Flow cytometry cell cycle analysis (G1 checkpoint) after UV. The class given is cell-based. The conditions noted are these: synchronized at G0, UV treatment, 20% serum; wild type or deleted p53 background. How it is done:
For cell cycle analysis, cells were collected by gentle scraping following a rapid EDTA rinse and concentrated by low speed centrifugation and washed in 1×PBS, and fixed with cold 70% ethanol. Cells were stained with a PI solution (PBS 1×, RNase A [10 μg/ml], and Propidium Iodide [50 μg/ml]) followed by cell sorting analysis. FACS data acquired were analyzed by CellQuest software.
To determine whether the failure in cell cycle arrest was due to a failed G1 checkpoint, cells were synchronized at G0 by serum starvation. The cells were then cultured in 20% serum to stimulate return to cell cycle following UV treatment. Cell cycle was determined by total DNA content as described above. […] This was true for either a wild type or deleted p53 background. Therefore, the failure in cell cycle arrest is due at least in part to a failed G1 arrest.

For assay [2], the system named is p53 mutant background (HeLa). As to the kind of experiment: Percent surviving cells after sublethal UV. The class given is cell-based. The conditions noted are these: 24 hours after treatment, vs control cells. Here is the method:
(§2) It was reasoned that if Tax-expressing cells display impaired damage response in a p53 independent manner then cells both deleted for p53 and expressing Tax would be more prone to apoptotic cell death in response to UV. To test this hypothesis, the apoptotic response of both Tax-expressing and control p53−/− cells was examined. Tax-expressing and control cells were exposed to sublethal doses of UV and examined for percent surviving cells 24 hours after treatment.

Assay [3] has as its system p53−/− cells. As to the kind of experiment: Percent surviving cells after sublethal UV. The class given is cell-based. The conditions noted are these: 24 hours after treatment. How it is done:
as §2

Assay [4] deals with REF52 cells. As to the kind of experiment: Cytokinesis block cell cycle progression assay. The class given is cell-based, rat. How it is done: as §1
Next, the cell cycle response of Tax-expressing cells was measured. REF52 and REF+Tax cells were subjected to the cytokinesis block cell cycle arrest assay to determine the intactness of the damage-induced checkpoint. In this assay, asynchronous cells were exposed to UV and incubated with cytochalasin B one hour later. The cell population was examined 36 hours later and assessed for division events. […] In contrast REF52 cells exposed to UV light initiated cell cycle arrest and presented a predominately (>90%) mononuclear cell population. However, Tax-expressing REF52 cells, exposed to UV, presented nearly 75% of the population as binucleated cells indicating a failure to arrest in cell cycle in response to UV-induced DNA damage. For each data point, 1000 cells were analyzed.

The subject of assay [5] is REF52 cells. As to the kind of experiment: Global nucleotide excision repair assay (unscheduled DNA synthesis, BrdU). The class given is cell-based, rat. The conditions noted are these: G1 synchronized cells, UV 20 j/m^2, BrdU. Here is the method: REF52 cells were seeded onto glass coverslips and transduced to express Tax at 25% efficiency. Sub-confluent Tax-expressing REF52 cells were cultured in 0.5% serum for 48 hrs, to synchronize at G0, prior to irradiation. The cells were released from G0 with addition of complete medium. At four hours post-release, the cells were irradiated with UV light (20 j/m^2) using a UV chamber-GS Gene Linker (Bio-Rad) and incubated for 30 min with 10 μM BrdU containing medium. The cells were then washed 4× with PBS and fixed in 4% paraformaldehyde. Cells were permeabilized with 2 minutes incubation in 100% methanol and washed 4× with PBS. The prepared cells were then reacted with both anti-Tax and anti-BrdU in PBS (containing 2% BSA). Primary antibodies were removed by washing 4× with 1% Tween 20 in PBS (PBS-Tween). Secondary conjugated antibodies were reacted for one hour at room temperature (RT). The cells were then washed with PBS-Tween and the slips were inverted onto slides with Vecta Shield (Vector Laboratories, CA). Incorporation of BrdU into the nucleus of cells at G1 corresponded to unscheduled repair synthesis.
A failure in damage-induced cell cycle arrest would result in reduced repair efficiency and could explain the Tax-associated NER deficiency. […]

Assay [6] concerns p53−/− cells. Kind of assay: UV-induced apoptosis, Vybrant Apoptosis Assay. The following applies: UV 20 and 50 J/m^2, 12 and 24 hours. The class given is cell-based. Here is the method:
(§3) Tax-expressing cells were treated with different UV doses (0, 20 and 50 j/m^2) and assessed at different time points post-transduction (4, 8, 12 and 24 hrs). Cells were separated into living, necrotic or apoptotic populations using the triple source fluorescent labeling, Vybrant Apoptosis Assay kit (Molecular Probes) according to the manufacturer's recommendations.
The early apoptotic response of Tax-expressing p53−/− cells was also observed. In this series of experiments the cell groups were exposed to 0 J/m^2, 20 J/m^2 and 50 J/m^2 and apoptosis measured at 12 and 24 hours (FIG. 7). […] This level of UV-induced apoptosis is equivalent to that seen in cells defective in NER (FIG. 3).

For assay [7], the system named is REF52 cells. As to the kind of experiment: UV-induced apoptosis, Vybrant Apoptosis Assay. The class given is cell-based, rat. The following applies: Tax-expressing REF52 following UV exposure. Here is the method: as §3
In addition to repair, at least two key events occured in the UV-induced cellular DNA damage response. These are initiation of cell cycle arrest and induction of apoptosis. The ability of Tax-expressing REF52 cells to undergo cell cycle arrest and apoptosis was assessed. Tax-expressing and control cells were subjected to UV irradiation and examined for apoptotic events and cell cycle profile. Prior to exposure to UV, the percent of non-apoptotic, apoptotic and necrotic cells were examined. The three populations were identified using the Vybrant assay. […] The same results were seen using several Tax-expressing cells including GM00010B (data not shown).

The test system of assay [8] is REF52 cells. As to the kind of experiment: Host cell reactivation assay (nucleotide excision repair capacity). The class given is cell-based, rat. The conditions noted are these: Tax-expressing REF52 vs control GFP-expressing REF52; UV-damaged CAT reporter. How it is done: pSV2-CAT reporter plasmid was damaged ex vivo by exposure to 1000 j/m^2 of Uv-C light using a UV chamber-GS Gene Linker (Bio-Rad). REF52 and XP-A cells were transfected with 4 μg of UV-irradiated or non-irradiated pSV2-CAT plasmid together with an undamaged reporter plasmid (pMSV-Luc), and with or without Tax plasmid. Forty-eight hours after calcium phosphate transfection, cells were pelleted and resuspended in 250 μl of 250 mM Tris pH8.0. For the Luciferase assay, 25 μl of the total cellular extract was added to 50 μl of luciferase substrate. Luciferase activity was quantitated in a Luminometer. Cat assays were performed in parallel with the same cells as described (Semmes, O., et al., J. Virol. 66(12):7183-92 (1992)). Cat activity was normalized to luciferase activity of the same extract. Repair activity was calculated by setting normalized cat activity from cells cotransfected with non-irradiated pSV2-CAT to 100%. The repair activity of duplicate cells cotransfected with irradiated pSV2-CAT was reported as a percentage of that activity.
In examining the biological response of Tax-expressing cells to UV-induced DNA damage, efficient Nucleotide Excision Repair (NER) ability was tested. The Host Cell Reactivation Assay (HCRA) was used as a measure of NER capacity in Tax-expressing REF52 cells. […] Thus, Tax expression results in reduced NER capacity as measured by HCRA.

The subject of the next assay is p53. As to the kind of experiment: Nuclear accumulation of p53 after UV (immunostaining). The class given is cell-based, rat. The following applies: Tax-expressing REF52 in response to UV damage. From the text:
A key player in initiation of the UV-repair response and activation of cell cycle arrest is p53. Activation of p53 is signaled by an accumulation of P53 in the nucleus of cells exposed to UV light. To examine whether Tax-expressing cells display this early p53 response, REF52 cells were transduced with suboptimal viral titers to produce an estimated 50% transduction efficiency. The cells were exposed to UV and examined for nuclear expression of p53.

In the case of Tax, the “steady-state protein levels of p53” value in the assay with p53 and p21 is given as “stabilization of steady-state protein levels of p53”. Besides, the “percent of surviving cells” value (with p53+/+ cells (REF52); in [2]) was “no decreased percent of surviving cells” in each case. The “percent of binucleated cells” value in assay [1] is given as greater than 72%. The “percentage of cells leaving G1” value with REF52 and p53d cells is “consistent and significant increase”. In the assay on p53−/− cells [3], the “cell death in response to UV exposure” value is “significant cell death”. For the same substance, the binucleated cells in the assay with REF52 cells [4] (exposed to UV, cytochalasin B, examined 36 hours later, 1000 cells per data point) is listed as roughly 75%. In addition, the “binucleated cell profile without UV” value in the assay with REF52 cells [4] (unexposed to UV) was “same profile as in the absence of Tax”. Further, the “UV-induced unscheduled DNA synthesis” value in the assay with REF52 cells [5] is given as “indistinguishable from control cells”. For the same substance, the apoptosis entry in the assay with p53−/− cells [6] is listed as “Significant apoptosis”. Besides, the “apoptotic response to DNA damage” value in the assay with REF52 cells [7] is “normal apoptotic response”. Moreover, the NER capacity entry with REF52 cells [8] is listed as “significantly reduced”. Moreover, the “nuclear accumulation of P53” value in the assay with p53 is given as “strong nuclear accumulation of P53”.
